The record followed here is patent publication US20130197073A1, “HYPOCHOLESTEROLEMIC, ANTI-INFLAMMATORY AND ANTIEPILEPTIC NEUROPROTECTIVE COMPOUND” (NEURON BIOPHARMA, S.A., priority 2010, published 2013).

Series [1] relates to zebrafish (Danio rerio, AB strain) embryos. The experiment in a line: Zebrafish embryo acute toxicity, percentage of healthy larvae. Particulars: mean±SD.
The test system is the same in series [2]. The experiment in a line: Zebrafish embryo acute toxicity, mortality (OECD C.15). Particulars: for Mortality (dead larvae with respect to the total): 3 days. Format: in vivo. The protocol:
30 control animals treated with dilution water and with daily replacement until the end of the assay.
30 animals treated with compound NST0060 (3 embryos for every ten replicates) diluted in dilution water at doses between 1 and 100 mg/Kg and with daily replacement of the substance during the days that the assay lasted.
After the time of exposure to the substances under study, the mortality record of the larvae was determined, results being shown in Table 2.

Series [3] has the same test system. The series can be described thus: Zebrafish embryo cardiotoxicity, heart rate. Particulars: 72 hpt.
The test system of another series is caspase 3/7. The experiment in a line: Inhibition of activation of caspase 3/7 in camptothecin cell model of apoptosis. Type of series: cell-based, human. Particulars: 50 μM, positive control; 50 μM CPT 6 hours. The protocol:
(§1) The assay was performed on human neuroblastoma SK-N-MC cells in culture, maintained as described in section 2.1.
The induction of apoptosis on the cells in culture was performed with camptothecin (CPT), which triggers the activation of cell apoptosis. Apoptosis was quantified by means of the measurement of the activation of effector caspases, caspase 3 or caspase 7, for which a kit for the fluorometric detection of active caspase 3/7 (Apo-ONE® Homogeneous Caspase-3/7, Promega) was used. Active caspases 3 or 7 of the cells cause the rupture of a substrate, which leads to fluorescence emission, which is read by means of a fluorometer. The effect of the pretreatment of compound NST0060 at 10 and 40 μM on the activation of caspase 3/7 produced by 50 μM of camptothecin (CPT) in the SK-N-MC cells was thus analyzed. These cells, not exceeding 15 passages, were seeded on 96-well plates treated for adherent cells with a cell concentration of 5×10^4 cells/well; 3 wells of the plate were seeded for each assay condition.
After 24 hours of cell incubation (at 37° C. and 5% CO2), the pretreatment with NST0060 at 10 and 40 μM was performed.
The cells were incubated (at 37° C. and 5% CO2) with these treatments for 6 hours, after which cell lysis buffer and the caspase substrate at the concentrations specified by the manufacturer were added; it was incubated at room temperature for 30 minutes and then frozen at −20° C. overnight. Fluorescence was measured the next day (499/521 nm, Exci/Emi).

Series [4] relates to human neuroblastoma SK-N-MC cells. The series can be described thus: Inhibition of DNA fragmentation (sub-G1, flow cytometry) in camptothecin cell model of apoptosis. Type of series: cell-based. The following applies: 50 μM, positive control; 50 μM CPT. The protocol: as §1
The inhibition caused by compound NST0060 with respect to apoptosis caused by treatment with camptothecin (CPT), which inhibits the topoisomerase I enzyme, prevents DNA duplication and triggers apoptotic cell death. These cells, not exceeding 15 passages, were seeded on 6-well plates treated for adherent cells with a cell concentration of 7×10^5 cells/well; 2 wells of the plate were seeded for each assay condition.
After 24 hours of cell incubation (at 37° C. and 5% CO2), cell pretreatment was performed with 10 and 40 μM of NST0060 for 24 hours; they were subsequently treated with 50 μM CPT for 6 hours. Furthermore, Z-VAD-fmk at 50 μM was used as positive control for inhibition.
After treatment, the cells were collected along with their culture medium and centrifuged at 300×g for 5 minutes. The medium was removed, a washing was performed with PBS and the cells were fixed for 2 minutes with 500 μl of 70% ethanol at −20° C. […] After this time they were analyzed by flow cytometry, comparing the fluorescence of propidium iodide with respect to the amount of DNA. The percentage of apoptosis was measured on the sub-G1 region of each of the conditions.
Background: Flow cytometry measures light scatter and fluorescence of single cells or particles in a stream.

Turning to `CCC(C)(C)C(=O)O[C@H]1C[C@@H](C)C=C2C=C[C@H](C)[C@H](CC[C@@H]3C[C@@H](O)CC(=O)O3)[C@H]21` [simvastatin, reference compound], the “percentage of healthy larvae” value in series [1] (dose of 1 mg/Kg) and in series [1] (dose of 3 mg/Kg) was 50.0±22.4% each time. For the same compound, the “Mortality (dead larvae with respect to the total)” value in series [2] (Dose 1 mg/kg) is given as 0/30; in series [2] (Dose 3 mg/kg) it was 0/30; in series [2] (Dose 10 mg/kg) it was 16/30; in series [2] (Dose 30 mg/kg) it was 30/30; in series [2] (Dose 100 mg/kg), 30/30. Further, the “deaths out of 30 animals” value in series [2] (dose of 10 mg/Kg, 72 h) is reported as 16. For the same compound, the “heart rate with respect to the controls” value in series [3] (dose of 3 mg/Kg) and in series [3] (dose of 10 mg/Kg) was “significant decrease of the heart rate” throughout.

In the case of Z-VAD-fmk [reference compound], the “inhibition of the activation of caspase 3/7” value in the series on caspase 3/7 is “completely inhibited”. Besides, the “inhibition of apoptosis (DNA fragmentation) caused by CPT” value in series [4] is “specifically inhibited apoptosis caused by CPT”.
